Measured values taken from PubChem BioAssay AID2060603 (Molecular Pharmacology Branch, DTP, NCI, 2025).
“And” between values parts separate entries of the source, which are not always exact repeats. Equal entries are not always repeated.

Test system: 422866-222-R5-J1-PDC spheroid viability
Experiment: Anticancer human tumor 422866-222-R5-J1-PDC patient-derived pancreatic adenocarcinoma cell line growth inhibition [CLK]
Details: spheroids with HUVEC and MSC; for viability, T/C: stronger effect = lower value
Source text: A high-throughput screen of multi-cell type tumor spheroids was designed to identify active combinations of […] and targeted small molecules. Complex spheroids include a stromal component modeled by human endothelial cells (HUVEC) and fibroblasts modeled by human mesenchymal stem cells (MSCs). The concentration ranges selected for each drug and investigational agent were based upon clinically achievable concentrations if the clinical Cmax of the agent was known.
Compounds. The drugs and investigational agents: cirtuvivint (SM08502; NSC835563), CC-671 (NSC850746), vemurafenib (NSC761431), tapotoclax (NSC804041), sotorasib (NSC818433), adagrasib (NSC831453), MRTX-1133 (NSC836407), BAY2416964 (NSC825713), copanlisib (NSC816437), inavolisib (NSC800729), abemaciclib (NSC768073), osimertinib (NSC779217), entinostat (NSC756642), eltanexor (KPT-8602, NSC794443), venetoclax (NSC766270), ceralasertib (NSC777638), bortezomib (NSC756655), olaparib (NSC753686), talazoparib (NSC767125), alisertib (NSC759677), peposertib (NSC802822), gemcitabine (NSC613327), 5-fluorouracil (NSC19893), SN-38 (NSC673596), oxaliplatin (NSC266046), paclitaxel (NSC125973), and doxorubicin (NSC123127), were obtained from the National Cancer Institute (NCI) Developmental Therapeutics Program Chemical Repository. The FDA-approved anticancer drug set is available from the Developmental Therapeutics Program at https://dtp.cancer.gov/organization/dscb/obtaining/available plates.htm. […] The stock solutions were prepared in dimethyl sulfoxide (DMSO, Sigma-Aldrich, St. Louis, MO, cat. D2650), except for the platinum complexes which were prepared in saline (Quality Biological, Gaithersburg, MD, cat. 114-055-101), at 800-fold the tested concentration and stored at -70 degrees C prior to their use. All drugs and investigational agents were tested over a range starting from a high concentration at or near the clinical Cmax and decreasing in half-log increments. If the clinical Cmax for an agent had not been determined, the highest concentration tested was 10 microM.
Cell Culture. All cells were maintained in an incubator at 37 degrees C and 5% CO2 with 95% humidity. The PDC lines were cultured according to standard operating procedures established by the NCI PDMR. Briefly, all PDCs were thawed and cultured in Matrigel-coated flasks prepared with a working solution of 1X Ham's F-12 nutrient mix, without supplementation (Invitrogen, Waltham, MA, cat. 11765054), 100 U/mL penicillin-streptomycin (Invitrogen, cat. 15140122), and 2.5% Matrigel (Corning Inc., Corning, NY, cat. 354248) for the first three passages. The 947758-054-R-J2-PDC line was cultured in 6B/Colon 1A media, which includes advanced DMEM/F-12 (Thermo Fisher Scientific, cat. 12634028), 10 mM HEPES (Thermo Fisher Scientific, cat. 15630080), 1X GlutaMAX supplement (Thermo Fisher Scientific, cat. 35050061), 0.1 mg/mL primocin (InvivoGen, cat. ant-pm-2), 10% defined fetal bovine serum, heat inactivated (HyClone Laboratories Inc., cat. SH30070.03HI), 1.25 mM N-Acetyl-L-cysteine (Sigma-Aldrich, cat. A9165), 10 mM nicotinamide (Sigma-Aldrich, cat. N0636), 1X B-27 supplement (Thermo Fisher Scientific, cat. 17504044), 1X N-2 supplement (Thermo Fisher Scientific, cat. 17502048), and 10 microM Y-27632 dihydrochloride (Tocris Bioscience, cat. 1254). The 876862-298-R-J1-PDC was cultured in 6E media, which includes all 6B/Colon 1A media components plus 50% L-WRN conditioned media (ATCC, cat. CRL-3276), 50 ng/mL recombinant human EGF recombinant protein (hEGF; Thermo Fisher Scientific, cat. PHG0311), 10 ng/mL recombinant human fibroblast growth factor 10 (hGFG-10; PeproTech, cat. 100-26), 1 ng/mL recombinant human fibroblast growth factor 2 (hFGF-2; PeproTech, cat. 100-18B), and 1 µM prostaglandin E2 (PGE2; Tocris, cat. 2296). The 227483-062-R1-J1-PDC line was cultured in Panc media, containing all 6E components except hFGF-2, with the addition of 500 nM SB-431542 (Selleckchem, cat. S1067) and 10 nM gastrin (Tocris, cat. 3006). […]

[1] = curve of first compound, second compound 0.0316 µM
[2] = curve of first compound, second compound 0.1 µM
[3] = curve of first compound, second compound 0.316 µM
[4] = curve of first compound, second compound 1 µM
[5] = curve of first compound, second compound 3.16 µM
[6] = curve of first compound, second compound 10 µM
[7] = second compound 0.0316 µM, first compound 0.0316 µM
[8] = second compound 0.0316 µM, first compound 0.1 µM
[9] = second compound 0.0316 µM, first compound 0.316 µM
[10] = second compound 0.0316 µM, first compound 1 µM
[11] = second compound 0.0316 µM, first compound 3.16 µM
[12] = second compound 0.0316 µM, first compound 10 µM
[13] = second compound 0.1 µM, first compound 0.0316 µM
[14] = second compound 0.1 µM, first compound 0.1 µM
[15] = second compound 0.1 µM, first compound 0.316 µM
[16] = second compound 0.1 µM, first compound 1 µM
[17] = second compound 0.1 µM, first compound 3.16 µM
[18] = second compound 0.1 µM, first compound 10 µM
[19] = second compound 0.316 µM, first compound 0.0316 µM
[20] = second compound 0.316 µM, first compound 0.1 µM
[21] = second compound 0.316 µM, first compound 0.316 µM
[22] = second compound 0.316 µM, first compound 1 µM
[23] = second compound 0.316 µM, first compound 3.16 µM
[24] = second compound 0.316 µM, first compound 10 µM
[25] = second compound 1 µM, first compound 0.0316 µM
[26] = second compound 1 µM, first compound 0.1 µM
[27] = second compound 1 µM, first compound 0.316 µM
[28] = second compound 1 µM, first compound 1 µM
[29] = second compound 1 µM, first compound 3.16 µM
[30] = second compound 1 µM, first compound 10 µM
[31] = second compound 3.16 µM, first compound 0.0316 µM
[32] = second compound 3.16 µM, first compound 0.1 µM
[33] = second compound 3.16 µM, first compound 0.316 µM
[34] = second compound 3.16 µM, first compound 1 µM
[35] = second compound 3.16 µM, first compound 3.16 µM
[36] = second compound 3.16 µM, first compound 10 µM
[37] = second compound 10 µM, first compound 0.0316 µM
[38] = second compound 10 µM, first compound 0.1 µM
[39] = second compound 10 µM, first compound 0.316 µM
[40] = second compound 10 µM, first compound 1 µM
[41] = second compound 10 µM, first compound 3.16 µM
[42] = second compound 10 µM, first compound 10 µM
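Note: spheroids exposed to agents for seven days before readout.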

O=C(c1cc(Cc2n[nH]c(=O)c3ccccc23)ccc1F)N1CCN(C(=O)C2CC2)CC1 + CNC(=O)c1ccc(Nc2nc(OC3CCCC3)c3c(-c4ccc5nc(C)oc5c4)c[nH]c3n2)c(OC)c1
IC50 [1]: > 10000 nM | IC50 [2]: > 10000 nM | IC50 [3]: > 10000 nM | IC50 [4]: > 10000 nM | IC50 [5]: > 10000 nM | IC50 [6]: > 10000 nM | viability, T/C [7]: 103% | viability, T/C [8]: 104% | viability, T/C [9]: 112% | viability, T/C [10]: 110% | viability, T/C [11]: 90.6% | viability, T/C [12]: 90.2% | viability, T/C [13]: 111% | viability, T/C [14]: 110% | viability, T/C [15]: 108% | viability, T/C [16]: 110% | viability, T/C [17]: 91.9% | viability, T/C [18]: 72% | viability, T/C [19]: 85.2% | viability, T/C [20]: 84.7% | viability, T/C [21]: 77.2% | viability, T/C [22]: 71.2% | viability, T/C [23]: 76.1% | viability, T/C [24]: 60.6% | viability, T/C [25]: 71.3% | viability, T/C [26]: 63.9% | viability, T/C [27]: 64% | viability, T/C [28]: 52.1% | viability, T/C [29]: 71.3% | viability, T/C [30]: 65.7% | viability, T/C [31]: 68% | viability, T/C [32]: 85.8% | viability, T/C [33]: 68.1% | viability, T/C [34]: 66.9% | viability, T/C [35]: 57.8% | viability, T/C [36]: 59.2% | viability, T/C [37]: 66.1% | viability, T/C [38]: 75.8% | viability, T/C [39]: 58.3% | viability, T/C [40]: 62.1% | viability, T/C [41]: 62.4% | viability, T/C [42]: 51.8%

Nc1ccccc1NC(=O)c1ccc(CNC(=O)OCc2cccnc2)cc1 + CN1CCN(c2cc(C(=O)Nc3cc4cc(-c5cnn(C)c5)ccc4cn3)ccn2)CC1
IC50 [1]: > 10000 nM | IC50 [2]: > 10000 nM | IC50 [3]: 2380 nM | IC50 [4]: < 31.6 nM | IC50 [5]: < 31.6 nM | IC50 [6]: < 31.6 nM | viability, T/C [7]: 121% | viability, T/C [8]: 137% | viability, T/C [9]: 121% | viability, T/C [10]: 114% | viability, T/C [11]: 75.8% | viability, T/C [12]: 60.4% | viability, T/C [13]: 135% | viability, T/C [14]: 118% | viability, T/C [15]: 121% | viability, T/C [16]: 96.6% | viability, T/C [17]: 74.5% | viability, T/C [18]: 62.6% | viability, T/C [19]: 106% | viability, T/C [20]: 95.5% | viability, T/C [21]: 91.1% | viability, T/C [22]: 62.5% | viability, T/C [23]: 46.9% | viability, T/C [24]: 19.5% | viability, T/C [25]: 28.4% | viability, T/C [26]: 28.6% | viability, T/C [27]: 25.6% | viability, T/C [28]: 16.1% | viability, T/C [29]: 4.32% | viability, T/C [30]: 5.2% | viability, T/C [31]: 8.75% | viability, T/C [32]: 8.34% | viability, T/C [33]: 4.74% | viability, T/C [34]: 4.04% | viability, T/C [35]: 3.26% | viability, T/C [36]: 8.29% | viability, T/C [37]: 2.62% | viability, T/C [38]: 1.81% | viability, T/C [39]: 1.37% | viability, T/C [40]: 1.01% | viability, T/C [41]: 2.34% | viability, T/C [42]: 4.45%

CC(Nc1ccc2c(c1)OCCn1cc(N3C(=O)OCC3C(F)F)nc1-2)C(N)=O (stereo unspecified)
viability, T/C (compound 0.0316 µM): 76.1% and 62.1% | viability, T/C (compound 0.1 µM): 67.9% and 53.8% | viability, T/C (compound 0.316 µM): 46.1% and 36.7% | viability, T/C (compound 1 µM): 42.5% and 38.5% | viability, T/C (compound 3.16 µM): 34.2% and 31.7% | viability, T/C (compound 10 µM): 32% and 27.6% | IC50 (curve of compound): 308 nM and 113 nM
